{NH2} = code of the source, not defined here; [4sU] = 4-thiouridine
The substances below were run on most abundant miRNAs in HEK293 cells (assay: miRNA inhibition by cocktail of 2'-O-methyl antisense oligoribonucleotides in HEK293 cells; seed match depletion/enrichment in down-/up-regulated transcripts (Affymetrix arrays)). Settings: antisense cocktail vs mock.
Assay type: cell-based, human
Experimental: All miRNAs are assumed to have U at position 1. p-values for 4 types of seeds, indicated below, were tested.
miRNAs are predominantly localized to the cytoplasm although a smaller fraction can be detected in nuclear extracts (Hwang et al., 2007; Meister et al., 2004; Pena et al., 2009; Robb et al., 2005; Weinmann et al., 2009). Our CCRs correspond to 84% exonic, 14% intronic, and 2% not assigned transcribed regions. This distribution is consistent with the predominant cytoplasmic function of miRNAs. Of the exonic CCRs, 50% distributed to the CDS, 46% to the 3′ UTR, and 4% to the 5′ UTR of mRNAs, with a specific enrichment in the 3′UTRs relative to what is expected based on the relative lengths of different transcript regions (FIG. 6D). The identification of such a large number of miRNA binding sites within the CDS was unexpected, because miRNA are believed to predominantly act on 3′ UTRs (Bartel, 2009), with a few reports providing evidence for miRNA-binding to 5′ UTR or CDS (Forman et al., 2008; Lytle et al., 2007; Orom et al., 2008; Tay et al., 2008). In order to determine if CCR-containing transcripts were indeed subject to miRNA-dependent regulation, we inhibited 25 of the most abundant miRNAs in HEK293 cells (FIG. 5C) with a cocktail of 2′-O-methyl-modified antisense oligoribonucleotides (FIG. 7A and see FIG. 28A-C for the efficiency of the individual antisense oligoribonucleotide). The change in relative mRNA abundance before and after miRNA inhibition was recorded by Affymetrix whole transcriptome array analysis.
miRNA duplexes and 2′-O-methyl oligoribonucletide transfections of HEK293 TREx Flp-In cells were carried out using Lipofectamine RNAiMAX (Invitrogen). Total RNA was isolated by TRIZOL RNA extraction. The RNA was further purified and Human Genome U133 Plus 2.0 Array (Affymetrix) analyses were performed as described previously (Landthaler et al., 2008).
CEL files of mRNA profiles from miRNA/2′O-methyl oligonucleotide and mocktransfected cell were loaded into the R software using the BioConductor affy package (Gentleman et al., 2004). The transcript probe set intensities were background-corrected, adjusted for non-specific binding and quantile normalized with the GCRMA algorithm (Wu, 2006). Probe sets with more than 6 of the 11 probes mapping ambiguously to the genome were discarded, as were probe sets that mapped to multiple genes. We then collected all probe sets matching a given gene, and we computed the logarithm of gene-level expression as the average of the log-intensity of probe sets mapping to that gene. For sequence analyses we also selected a representative transcript for each gene. This was the Genbank transcript with median 3′ UTR length corresponding to that gene. In total this procedure gave us expression measurements for 16,063 genes (and representative transcripts). The difference between the log-expression levels of a gene in samples treated with a cocktail of 2′-O-methyl oligoribonucleotides and mock transfected cells was taken as a measure of transcript stabilization upon miRNA inhibition.

| Substance | efficiency of the individual antisense oligoribonucleotide (inhibition of cognate miRNA) |
| --- | --- |
| let-7a: 2'-O-methyl antisense oligoribonucleotide AACUAUACAACCUACUACCUCA-NH2 (SEQ ID NO: 42) (all 2'-O-methyl, 3' {NH2}, backbone not given here) | Marginal |
| miR-10a: 2'-O-methyl antisense oligoribonucleotide CACAAAUUCGGAUCUACAGGGUA-NH2 (SEQ ID NO: 43) (all 2'-O-methyl, 3' {NH2}, backbone not given here) | did not seem to have inhibited their cognate miRNAs |
| miR-15a: 2'-O-methyl antisense oligoribonucleotide CGCCAAUAUUUACGUGCUGCUA (SEQ ID NO: 44) (all 2'-O-methyl, backbone not given here) | Worked |
| miR-17: 2'-O-methyl antisense oligoribonucleotide CUACCUGCACUGUAAGCACUUUG (SEQ ID NO: 47) (all 2'-O-methyl, backbone not given here) | Worked |
| miR-18a: 2'-O-methyl antisense oligoribonucleotide CUAUCUGCACUAGAUGCACCUUA-NH2 (SEQ ID NO: 48) (all 2'-O-methyl, 3' {NH2}, backbone not given here) | Worked |
| miR-19a: 2'-O-methyl antisense oligoribonucleotide UCAGUUUUGCAUAGAUUUGCACA (SEQ ID NO: 49) (all 2'-O-methyl, backbone not given here) | Worked |
| miR-21: 2'-O-methyl antisense oligoribonucleotide UCAACAUCAGUCUGAUAAGCUA (SEQ ID NO: 53) (all 2'-O-methyl, backbone not given here) | Marginal |
| miR-27a: 2'-O-methyl antisense oligoribonucleotide AACUAUACAAUCUACUACCUCA (SEQ ID NO: 55) (all 2'-O-methyl, backbone not given here) | did not seem to have inhibited their cognate miRNAs |
| miR-30a: 2'-O-methyl antisense oligoribonucleotide CUUCCAGUCGAGGAUGUUUACA-NH2 (SEQ ID NO: 56) (all 2'-O-methyl, 3' {NH2}, backbone not given here) | Worked |
| miR-92a: 2'-O-methyl antisense oligoribonucleotide ACAGGCCGGGACAAGUGCAAUA (SEQ ID NO: 58) (all 2'-O-methyl, backbone not given here) | Worked |
| miR-101: 2'-O-methyl antisense oligoribonucleotide UUCAGUUAUCACAGUACUGUA (SEQ ID NO: 60) (all 2'-O-methyl, backbone not given here) | Marginal |
| miR-103: 2'-O-methyl antisense oligoribonucleotide UCAUAGCCCUGUACAAUGCUGCU (SEQ ID NO: 61) (all 2'-O-methyl, backbone not given here) | Worked |
| miR-186: 2'-O-methyl antisense oligoribonucleotide AGCCCAAAAGGAGAAUUCUUUG (SEQ ID NO: 63) (all 2'-O-methyl, backbone not given here) | Didn't Work Well |
| miR-301b: 2'-O-methyl antisense oligoribonucleotide GCUUUGACAAUACUAUUGCACUG (SEQ ID NO: 64) (all 2'-O-methyl, backbone not given here) | Worked |
| miR-378: 2'-O-methyl antisense oligoribonucleotide CCUUCUGACUCCAAGUCCAGU (SEQ ID NO: 65) (all 2'-O-methyl, backbone not given here) | Marginal |

Same assay, conditions: antisense cocktail vs mock, listed as MiR-10a

| Substance | efficiency of the individual antisense oligoribonucleotide (inhibition of cognate miRNA) |
| --- | --- |
| miR-10a: 2'-O-methyl antisense oligoribonucleotide CACAAAUUCGGAUCUACAGGGUA-NH2 (SEQ ID NO: 43) (all 2'-O-methyl, 3' {NH2}, backbone not given here) | Didn't Work |

Same assay, conditions: antisense cocktail vs mock, listed as MiR-27a

| Substance | efficiency of the individual antisense oligoribonucleotide (inhibition of cognate miRNA) |
| --- | --- |
| miR-27a: 2'-O-methyl antisense oligoribonucleotide AACUAUACAAUCUACUACCUCA (SEQ ID NO: 55) (all 2'-O-methyl, backbone not given here) | Didn't Work |

These substances were tested against T1, recombinant His6-QKI protein (Homo sapiens, UniProt Q96PU8) (assay: Electrophoretic mobility shift assay (gel-shift) with recombinant QKI). Settings: not given.
T1 construct: His6 (N); made in house; host or cells: E. coli STAR(DE3)
T1 sequence (Q96PU8 1-319 isoform Q96PU8-9): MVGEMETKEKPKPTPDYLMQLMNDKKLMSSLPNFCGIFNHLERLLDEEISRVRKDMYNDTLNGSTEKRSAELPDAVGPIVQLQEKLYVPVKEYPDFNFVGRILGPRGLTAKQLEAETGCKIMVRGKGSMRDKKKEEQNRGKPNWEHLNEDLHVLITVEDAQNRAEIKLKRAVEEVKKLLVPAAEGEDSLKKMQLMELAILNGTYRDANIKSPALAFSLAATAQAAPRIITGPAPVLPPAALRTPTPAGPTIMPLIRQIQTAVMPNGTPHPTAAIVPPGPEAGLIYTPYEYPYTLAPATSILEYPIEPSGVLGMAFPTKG
Assay type: binding
Experimental: FIG. 11: Electrophoretic mobility shift assay (EMSA) to analyze binding of recombinant QKI to synthetic oligoribonucleotides with a sequence derived from a cluster identified by QKI PURE-CLIP. […] C Mutation of either one of the QKI binding sites (marked with red bars in the RNA-sequence) results in decreased affinity of QKI to the RNA. Mutation of both binding sites leads to complete loss of affinity of QKI to the RNA.
Radiolabeled RNA (1 nM) was incubated with recombinant His6-QKI protein at various concentrations and 100 ng tRNA in 20 μl of 20 mM HEPES-KOH, pH 7.4, 330 mM KCl, 10 mM MgCl2, 0.1 mM EDTA and 0.01% IGEPAL CA630 (Sigma). After addition of 6 μl loading dye (40% glycerol, bromophenol blue in binding buffer), the solution was loaded onto a native 10% acrylamide gel containing 0.5×TBE, running at 200 V for 2 h at room temperature, using 0.5×TBE as running buffer. The protein-bound RNA and the free RNA were quantified using a phosphorimager.

| Substance | RNA-binding / affinity to recombinant QKI by gel-shift analysis |
| --- | --- |
| U10: synthetic oligoribonucleotide with 4SU at position 3 of the QKI recognition element; GUAUGCCAU(4sU)AACAAAUUCAUUAACAA (SEQ ID NO: 31) (GUAUGCCAUUAACAAAUUCAUUAACAA; RNA, [4sU] at 10, backbone not given here) | unaffected |

From US8841073B2, “Methods for identifying RNA segments bound by RNA-binding proteins or ribonucleoprotein complexes” (The Rockefeller University, priority 2008, dated 2014)
